Four compounds from ChEMBL document CHEMBL1149971, “A general approach toward the design of inhibitors of serine proteinases: inhibition of human leukocyte elastase by substituted dihydrouracils” (Bioorg Med Chem Lett, 1992) can be followed below.

The target in this experiment is T1, Neutrophil elastase (Homo sapiens) (UniProt P08246).
T1 sequence (whole entry): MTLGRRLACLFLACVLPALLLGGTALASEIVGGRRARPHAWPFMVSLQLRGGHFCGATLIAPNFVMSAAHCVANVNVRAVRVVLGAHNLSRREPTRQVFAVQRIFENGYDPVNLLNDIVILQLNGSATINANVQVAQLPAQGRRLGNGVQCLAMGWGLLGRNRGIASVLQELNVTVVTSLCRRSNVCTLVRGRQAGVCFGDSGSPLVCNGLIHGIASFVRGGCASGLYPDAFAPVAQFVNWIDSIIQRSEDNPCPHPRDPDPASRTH
Briefly: Bimolecular rate constant for the inhibition of human leukocyte elastase.
On to `O=C1NCC(Cc2ccccc2)C(=O)N1OS(=O)(=O)/C=C/c1ccccc1` (centres undefined), for which the Bimolecular inhibition rate constant (kobs/[I]) was found to be 480 M⁻¹ s⁻¹.

On to `CS(=O)(=O)ON1C(=O)NCC(Cc2ccccc2)C1=O` (centres undefined), for which the Bimolecular inhibition rate constant (kobs/[I]) was 3310 M⁻¹ s⁻¹.

In turn, `CS(=O)(=O)ON1C(=O)CC(Cc2ccccc2)NC1=O` (centres undefined) yielded a Bimolecular inhibition rate constant (kobs/[I]) of 800 M⁻¹ s⁻¹.

Compound `O=C1CC(Cc2ccccc2)NC(=O)N1OS(=O)(=O)/C=C/c1ccccc1` (centres undefined) came in with a Bimolecular inhibition rate constant (kobs/[I]) of 1980 M⁻¹ s⁻¹.
